Results taken from US11548870B2, “Compounds useful as inhibitors of helios protein” (Bristol-Myers Squibb Company, priority 2019, dated 2023).
Where two headings read alike, the source gives them in different places.

Assays:
Helios = target: T1, Helios (Homo sapiens, UniProt Q96SW2+Q9UKS7); assay: Helios Cellular Degradation Assay (flow cytometry, Helios-PE antibody staining, 72 h); type: cell-based; details: for Dmax: Jurkat, read-out: Helios Dmax
T1 construct: fluorescently labelled antibodies against Helios and Ikaros; endogenous in cells; host or cells: Jurkat cells
Description: (§1) Helios Cellular Degradation Assay
(§2) Jurkat cells were plated at 80,000 cells/well in 40 μL RPMI+10% FBS in a 384 well cell culture plate prior to using acoustic dispensing technology for adding compound of interest. Cell cultures were incubated for 72 h at 37° C. and 5% CO2. In order to facilitate analysis, cell cultures were spun down at 200 rpm for 5 min and the supernatant was discarded. After shaking the plate to dislodge the cell pellet, cells were resuspended in 50 μL of Fixation Buffer (eBioScience FoxP3 buffer set 0000) for 60 min at room temperature. After centrifuging and discarding the supernatant, cells were permeabilized with 50 μL of Permeabilization buffer (eBioScience FoxP3 buffer set 00-5523-00) for 10 min at room temperature. Following permeabilization, cells were spun down and the supernatant was replaced with 20 μL fluorescently labelled antibodies against Helios and Ikaros or corresponding Isotype controls in 1× Permeabilization buffer (Ikaros-Alexa488 [Biolegend, Cat #368408, 1:50], Helios-PE [CST, Cat #29360, 1:50]) and staining reactions were incubated for 1 h at room temperature; protected from light. Subsequently, 30 μL of 1× Permeabilization buffer was added prior to centrifuging the cells and discarding the supernatant. Stained cells were resuspended in 25 μL of flow cytometry staining buffer (PBS+0.2% BSA) and analyzed using an Intellicyt Ique Plus flow cytometer.
as §2, with “00-5523-00)” for “0000)”

Ikaros = target: T2, Ikaros (Homo sapiens, UniProt Q13422); assay: Helios Cellular Degradation Assay, Ikaros readout (flow cytometry, Ikaros-Alexa488 antibody staining, 72 h); type: cell-based; details: Jurkat cells, 72 h incubation, flow cytometry; for Dmax: Jurkat, read-out: Ikaros Dmax
T2 construct: fluorescently labelled antibodies against Helios and Ikaros; endogenous in cells; host or cells: Jurkat cells
Description: as §1, §2
as §2, with “00-5523-00)” for “0000)”

[1] = Jurkat cells, 72 h incubation, flow cytometry

T2 sequence (Q96SW2 whole entry partner): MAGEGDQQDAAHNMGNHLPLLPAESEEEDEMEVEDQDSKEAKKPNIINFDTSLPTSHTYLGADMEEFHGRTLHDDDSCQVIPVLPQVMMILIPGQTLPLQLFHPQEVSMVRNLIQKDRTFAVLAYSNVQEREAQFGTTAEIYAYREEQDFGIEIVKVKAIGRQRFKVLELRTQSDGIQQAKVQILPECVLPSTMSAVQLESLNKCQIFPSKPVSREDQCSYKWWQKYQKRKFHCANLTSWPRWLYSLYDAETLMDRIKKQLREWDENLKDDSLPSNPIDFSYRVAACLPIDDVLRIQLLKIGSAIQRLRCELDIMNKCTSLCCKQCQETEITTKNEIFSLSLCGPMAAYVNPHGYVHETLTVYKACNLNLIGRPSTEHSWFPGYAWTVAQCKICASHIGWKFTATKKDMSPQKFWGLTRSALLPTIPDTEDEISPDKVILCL
T2 sequence (Q16531 whole entry partner): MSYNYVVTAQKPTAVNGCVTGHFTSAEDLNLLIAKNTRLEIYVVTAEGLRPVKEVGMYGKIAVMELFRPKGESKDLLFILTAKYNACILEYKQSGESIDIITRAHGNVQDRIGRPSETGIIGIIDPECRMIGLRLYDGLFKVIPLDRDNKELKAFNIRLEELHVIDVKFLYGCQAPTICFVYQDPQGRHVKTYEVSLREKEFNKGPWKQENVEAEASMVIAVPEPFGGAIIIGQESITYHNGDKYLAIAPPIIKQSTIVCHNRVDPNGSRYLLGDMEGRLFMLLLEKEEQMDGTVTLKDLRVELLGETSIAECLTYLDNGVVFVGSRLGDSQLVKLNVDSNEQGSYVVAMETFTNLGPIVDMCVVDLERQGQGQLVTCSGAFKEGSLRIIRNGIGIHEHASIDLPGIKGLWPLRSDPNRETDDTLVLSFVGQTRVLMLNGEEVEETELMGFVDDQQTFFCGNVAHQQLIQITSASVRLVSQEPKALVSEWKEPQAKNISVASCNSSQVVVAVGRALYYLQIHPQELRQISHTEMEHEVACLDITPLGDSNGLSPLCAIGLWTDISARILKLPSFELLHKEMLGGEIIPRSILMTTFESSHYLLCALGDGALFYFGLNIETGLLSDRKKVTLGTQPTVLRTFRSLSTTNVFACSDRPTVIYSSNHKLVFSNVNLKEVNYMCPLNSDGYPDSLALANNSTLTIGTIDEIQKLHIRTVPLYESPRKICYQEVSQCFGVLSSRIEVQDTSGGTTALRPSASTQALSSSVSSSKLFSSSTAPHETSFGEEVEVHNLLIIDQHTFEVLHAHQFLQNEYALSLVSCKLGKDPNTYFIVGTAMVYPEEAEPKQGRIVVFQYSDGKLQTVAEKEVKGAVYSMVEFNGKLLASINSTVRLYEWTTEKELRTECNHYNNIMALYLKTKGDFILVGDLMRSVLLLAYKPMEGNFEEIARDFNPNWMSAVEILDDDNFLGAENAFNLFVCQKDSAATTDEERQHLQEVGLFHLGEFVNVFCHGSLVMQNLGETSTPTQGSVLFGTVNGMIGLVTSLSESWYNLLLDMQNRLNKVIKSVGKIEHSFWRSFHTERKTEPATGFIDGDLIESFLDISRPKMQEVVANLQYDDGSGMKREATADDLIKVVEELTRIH
T2 sequence (Q13422 whole entry): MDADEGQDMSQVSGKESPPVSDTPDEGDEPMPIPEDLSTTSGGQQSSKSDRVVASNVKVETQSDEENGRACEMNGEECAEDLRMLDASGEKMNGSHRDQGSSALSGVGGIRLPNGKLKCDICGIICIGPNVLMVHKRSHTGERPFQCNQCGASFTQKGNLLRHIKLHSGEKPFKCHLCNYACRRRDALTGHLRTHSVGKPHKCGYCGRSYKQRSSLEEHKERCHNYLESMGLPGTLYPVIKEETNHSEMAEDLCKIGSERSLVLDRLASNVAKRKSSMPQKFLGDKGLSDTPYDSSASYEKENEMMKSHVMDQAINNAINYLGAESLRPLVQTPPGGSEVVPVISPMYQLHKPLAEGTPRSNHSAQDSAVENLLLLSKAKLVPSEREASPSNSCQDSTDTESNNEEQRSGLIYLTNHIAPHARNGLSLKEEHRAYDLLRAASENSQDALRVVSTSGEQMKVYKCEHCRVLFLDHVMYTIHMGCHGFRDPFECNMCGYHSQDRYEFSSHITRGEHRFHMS
T1 sequence (Q9UKS7 whole entry): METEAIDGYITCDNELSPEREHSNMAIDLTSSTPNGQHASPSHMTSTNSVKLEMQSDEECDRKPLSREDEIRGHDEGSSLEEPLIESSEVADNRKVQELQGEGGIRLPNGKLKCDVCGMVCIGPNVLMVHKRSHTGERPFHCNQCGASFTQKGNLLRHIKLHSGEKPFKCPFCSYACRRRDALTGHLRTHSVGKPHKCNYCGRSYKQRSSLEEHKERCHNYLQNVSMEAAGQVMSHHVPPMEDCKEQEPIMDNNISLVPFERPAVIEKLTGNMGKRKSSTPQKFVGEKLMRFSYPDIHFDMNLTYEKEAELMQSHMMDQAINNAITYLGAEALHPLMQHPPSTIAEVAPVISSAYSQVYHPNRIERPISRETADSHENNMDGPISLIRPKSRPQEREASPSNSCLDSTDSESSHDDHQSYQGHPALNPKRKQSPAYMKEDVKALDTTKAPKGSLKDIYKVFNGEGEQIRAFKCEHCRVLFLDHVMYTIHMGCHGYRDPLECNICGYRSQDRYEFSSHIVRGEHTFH
T1 sequence (Q96SW2 whole entry): as the sequence (Q96SW2 whole entry partner) above
T1 sequence (Q16531 whole entry partner): as the sequence (Q16531 whole entry partner) above

Molecule | DC50 (Helios; [1]) [nM] | Dmax (Helios; [1]) [%] | DC50 (Ikaros) [nM] | Dmax (Ikaros) [%] | Dmax (Helios) [%] | Helios Dmax (Helios; [1]) [%] | Ikaros Dmax (Ikaros) [%]
CC1CCCC(C)N1Cc1ccnc(-c2ccc3c(c2)CN(C2CCC(=O)NC2=O)C3=O)c1 (stereo not shown) [Example 53, 3-(5-(4-((2,6-dimethylpiperidin-1-yl)methyl)pyridin-2-yl)-1-oxoisoindolin-2-yl)piperidine-2,6-dione] | 231 | 77 | > 10000 | 21 | – | – | –
CCCNCc1ccnc(-c2ccc3c(c2)CN(C2CCC(=O)NC2=O)C3=O)c1 (stereo not shown) [Example 62, 3-(1-oxo-5-(4-((propylamino)methyl)pyridin-2-yl)isoindolin-2-yl)piperidine-2,6-dione] | 45 | 80 | > 10000 | 5 | – | – | –
O=C1CCC(N2Cc3cc(-c4cc(CN5CCC(n6c(=O)[nH]c7ccccc76)CC5)ccn4)ccc3C2=O)C(=O)N1 (stereo not shown) [Example 11, 3-(1-oxo-5-(4-((4-(2-oxo-2,3-dihydro-1H-benzo[d]imidazol-1-yl)piperidin-1-yl)methyl)pyridin-2-yl)isoindolin-2-yl)piperidine-2,6-dione] | 573 | – | > 10000 | 7 | 59 | – | –
CC1CCN(Cc2ccnc(-c3ccc4c(c3)CN(C3CCC(=O)NC3=O)C4=O)c2)CC1 (stereo not shown) [Example 14, 3-(5-(4-((4-methylpiperidin-1-yl)methyl)pyridin-2-yl)-1-oxoisoindolin-2-yl)piperidine-2,6-dione] | 36 | 80 | > 10000 | 16 | – | – | –
O=C1CCC(N2Cc3cc(-c4cc(CNCCCc5ccccc5)ccn4)ccc3C2=O)C(=O)N1 (stereo not shown) [Example 98, 3-(1-oxo-5-(4-(((3-phenylpropyl)amino)methyl)pyridin-2-yl)isoindolin-2-yl)piperidine-2,6-dione] | 6 | 91 | > 10000 | 8 | – | – | –
COCCN(C)Cc1ccnc(-c2ccc3c(c2)CN(C2CCC(=O)NC2=O)C3=O)c1 (stereo not shown) [Example 7, 3-(5-(4-(((2-methoxyethyl)(methyl)amino)methyl)pyridin-2-yl)-1-oxoisoindolin-2-yl)piperidine-2,6-dione] | 138 | 85 | > 10000 | 20 | – | – | –
O=C1CCC(N2Cc3cc(-c4cc(CN5CC6CC5CO6)ccn4)ccc3C2=O)C(=O)N1 (stereo not shown) [Example 79, 3-(5-(4-((2-oxa-5-azabicyclo[2.2.1]heptan-5-yl)methyl)pyridin-2-yl)-1-oxoisoindolin-2-yl) piperidine-2,6-dione] | > 10000 | 26 | > 10000 | 8 | – | – | –
CCCN(Cc1ccnc(-c2ccc3c(c2)CN(C2CCC(=O)NC2=O)C3=O)c1)CC1CC1 (stereo not shown) [Example 10, 3-(5-(4-(((cyclopropylmethyl)(propyl)amino)methyl)pyridin-2-yl)-1-oxoisoindolin-2-yl)piperidine-2,6-dione] | 183 | 67 | > 10000 | 9 | – | – | –
3-(5-(4-(((cyclobutylmethyl)(methyl)amino)methyl)pyridin-2-yl)-1-oxoisoindolin-2-yl)piperidine-2,6-dione [Example 178] | 131 | – | > 10000 | – | – | 82 | 15

Second part, led by results:

DC50 (Helios; [1]) [nM] | Dmax (Helios; [1]) [%] | DC50 (Ikaros) [nM] | Dmax (Ikaros) [%] | Molecule | Dmax (Helios) [%] | Helios Dmax (Helios; [1]) [%] | Ikaros Dmax (Ikaros) [%]
> 10000 | 38 | > 10000 | 8 | CN(Cc1ccc(S(C)(=O)=O)cc1)Cc1ccnc(-c2ccc3c(c2)CN(C2CCC(=O)NC2=O)C3=O)c1 (stereo not shown) [Example 157, 3-(5-(4-((methyl(4-(methylsulfonyl)benzyl)amino)methyl)pyridin-2-yl)-1-oxoisoindolin-2-yl)piperidine-2,6-dione] | – | – | –
76 | 71 | > 10000 | 16 | O=C1CCC(N2Cc3cc(-c4cc(CN5CC(c6cccnc6)C5)c(F)cn4)ccc3C2=O)C(=O)N1 (stereo not shown) [Example 190, 3-(5-(5-fluoro-4-((3-(pyridin-3-yl)azetidin-1-yl)methyl)pyridin-2-yl)-1-oxoisoindolin-2-yl) piperidine-2,6-dione] | – | – | –
48 | 71 | > 10000 | 7 | O=C1CCC(N2Cc3cc(-c4cc(CNCc5csc(-c6ccccc6)n5)ccn4)ccc3C2=O)C(=O)N1 (stereo not shown) [Example 110, 3-(1-oxo-5-(4-((((2-phenylthiazol-4-yl)methyl)amino)methyl)pyridin-2-yl)isoindolin-2-yl)piperidine-2,6-dione] | – | – | –
316 | 79 | > 10000 | 23 | CN(Cc1ccnc(-c2ccc3c(c2)CN(C2CCC(=O)NC2=O)C3=O)c1)CC1CCOC1 (stereo not shown) [Example 182, 3-(5-(4-((methyl((tetrahydrofuran-3-yl)methyl)amino)methyl)pyridin-2-yl)-1-oxoisoindolin-2-yl)piperidine-2,6-dione] | – | – | –
27 | 76 | – | 16 | O=C1CCC(N2Cc3cc(-c4cc(CN5CC(c6ccccc6)C5)c(F)cn4)ccc3C2=O)C(=O)N1 (stereo not shown) [Example 188, 3-(5-(5-fluoro-4-((3-phenylazetidin-1-yl)methyl)pyridin-2-yl)-1-oxoisoindolin-2-yl) piperidine-2,6-dione] | – | – | –
72 | 79 | > 10000 | 12 | O=C1CCC(N2Cc3cc(-c4cc(CNCCc5nc6ccccc6s5)ccn4)ccc3C2=O)C(=O)N1 (stereo not shown) [Example 106, 3-(5-(4-(((2-(benzo[d]thiazol-2-yl)ethyl)amino)methyl)pyridin-2-yl)-1-oxoisoindolin-2-yl)piperidine-2,6-dione] | – | – | –
226 | 74 | > 10000 | 4 | CN(Cc1ccc(F)cc1)Cc1ccnc(-c2ccc3c(c2)CN(C2CCC(=O)NC2=O)C3=O)c1 (stereo not shown) [Example 147, 3-(5-(4-(((4-fluorobenzyl)(methyl)amino)methyl)pyridin-2-yl)-1-oxoisoindolin-2-yl)piperidine-2,6-dione] | – | – | –
42 | 75 | > 10000 | 20 | COC1CN(Cc2ccnc(-c3ccc4c(c3)CN(C3CCC(=O)NC3=O)C4=O)c2)C1 (stereo not shown) [Example 197, 3-(5-(4-((3-methoxyazetidin-1-yl)methyl)pyridin-2-yl)-1-oxoisoindolin-2-yl)piperidine-2,6-dione] | – | – | –
921 | 74 | > 10000 | 2 | COC(=O)CCNCc1ccnc(-c2ccc3c(c2)CN(C2CCC(=O)NC2=O)C3=O)c1 (stereo not shown) [Example 112, methyl 3-(((2-(2-(2,6-dioxopiperidin-3-yl)-1-oxoisoindolin-5-yl)pyridin-4-yl)methyl)amino)propanoate] | – | – | –
528 | 78 | > 10000 | 6 | O=C1CCC(N2Cc3cc(-c4cc(CNCCCN5CCCC5=O)ccn4)ccc3C2=O)C(=O)N1 (stereo not shown) [Example 115, 3-(1-oxo-5-(4-(((3-(2-oxopyrrolidin-1-yl)propyl)amino)methyl)pyridin-2-yl)isoindolin-2-yl)piperidine-2,6-dione] | – | – | –
88 | 83 | 897 | 52 | CN(Cc1ccnc(-c2ccc3c(c2)CN(C2CCC(=O)NC2=O)C3=O)c1)C(C)(C)c1ccccc1 (stereo not shown) [Example 142, 3-(5-(4-((methyl(2-phenylpropan-2-yl)amino)methyl)pyridin-2-yl)-1-oxoisoindolin-2-yl)piperidine-2,6-dione] | – | – | –
